Measurements published in ChEMBL document CHEMBL6121019, “Design, synthesis and biological evaluation of bisnoralcohol derivatives as novel IRF4 inhibitors for the treatment of multiple myeloma” (Eur J Med Chem, 2025).
Activity calls are given as the source filed them. The calls are words filed in the database; no cut-off is given here.

What was measured:
MM.1R [1] = assay: Antiproliferative activity against human MM1.R cells with siRNA mediated IRF4 knockdown measured upto 5 days by MTS assay; assay type: functional, cell-based; settings: time <= 5.0 day
NCI-H929 [2] = assay: Antiproliferative activity against human NCI-H929 cells with siRNA mediated IRF4#1 knockdown at 0.125 to 1 uM measured upto 5 days by MTS assay; assay type: functional, cell-based; settings: dose 0.125-1 µM, time <= 5.0 day
NCI-H929 [3] = assay: Antiproliferative activity against human NCI-H929 cells with siRNA mediated IRF4#2 knockdown at 0.125 to 1 uM measured upto 5 days by MTS assay; assay type: functional, cell-based; settings: dose 0.125-1 µM, time <= 5.0 day
NCI-H929 [4] = assay: Effect on IRF4 expression in human NCI-H929 cells by Western blot analysis; assay type: functional, cell-based
MM.1R [5] = assay: Effect on IRF4 expression in human MM1.R cells by Western blot analysis; assay type: functional, cell-based
RPMI-8226 [6] = assay: Effect on IRF4 expression in human RPMI-8226 cells by Western blot analysis; assay type: functional, cell-based
HAF = assay: Effect on IRF4 expression in human HAF cells by Western blot analysis; assay type: functional, cell-based
NCI-H929 [7] = assay: Antiproliferative activity against human NCI-H929 cells assessed as inhibition of 3D clone forming ability measured after 2 to 3 weeks; assay type: functional, cell-based; settings: dose 0.125-1 µM, time 2-3 weeks
NCI-H929 [8] = assay: Downregulation of CCNC expression in human NCI-H929 cells measured after 24 hrs by qRT-PCR analysis; assay type: functional, cell-based; settings: dose 0.125-1 µM
NCI-H929 [9] = assay: Downregulation of CANX expression in human NCI-H929 cells measured after 24 hrs by qRT-PCR analysis; assay type: functional, cell-based; settings: dose 0.125-1 µM
NCI-H929 [10] = assay: Downregulation of E2F5 expression in human NCI-H929 cells measured after 24 hrs by qRT-PCR analysis; assay type: functional, cell-based; settings: dose 0.125-1 µM
NCI-H929 [11] = assay: Downregulation of Blimp1 expression in human NCI-H929 cells measured after 24 hrs by qRT-PCR analysis; assay type: functional, cell-based; settings: dose 0.125-1 µM
MM.1R [12] = assay: Downregulation of HK2 expression in human MM1.R cells measured after 24 hrs by qRT-PCR analysis; assay type: functional, cell-based; settings: dose 0.125-1 µM
MM.1R [13] = assay: Downregulation of Blimp1 expression in human MM1.R cells measured after 24 hrs by qRT-PCR analysis; assay type: functional, cell-based; settings: dose 0.125-1 µM
MM.1R [14] = assay: Inhibition of AKT phosphorylation level in human MM1.R cells at 0.1 to 1 uM by Western blot analysis; assay type: functional, cell-based; settings: dose 0.1-1 µM
MM.1R [15] = assay: Inhibition of ERK phosphorylation level in human MM1.R cells at 0.1 to 1 uM by Western blot analysis; assay type: functional, cell-based; settings: dose 0.1-1 µM
NCI-H929 [16] = assay: Inhibition of AKT phosphorylation level in human NCI-H929 cells at 0.1 to 1 uM by Western blot analysis; assay type: functional, cell-based; settings: dose 0.1-1 µM
NCI-H929 [17] = assay: Inhibition of ERK phosphorylation level in human NCI-H929 cells at 0.1 to 1 uM by Western blot analysis; assay type: functional, cell-based; settings: dose 0.1-1 µM
MM.1R [18] = assay: Induction of DNA damage in human MM1.R cells assessed as increase in gammaH2AX expression at 0.1 to 1 uM by Western blot analysis; assay type: functional, cell-based; settings: dose 0.1-1 µM
NCI-H929 [19] = assay: Induction of cell cycle arrest in human NCI-H929 cells assessed as accumulation of cells at G1 phase measured after 24 hrs by flow cytometry analysis; assay type: functional, cell-based; settings: dose 0.125-0.5 µM
NCI-H929 [20] = assay: Induction of cell cycle arrest in human NCI-H929 cells assessed as accumulation of cells at G1 phase at 0..5 uM measured after 24 hrs by flow cytometry analysis (reference value: 54.12%); assay type: functional
NCI-H929 [21] = assay: Induction of cell cycle arrest in human NCI-H929 cells assessed as accumulation of cells at S phase at 0.125 uM measured after 24 hrs by flow cytometry analysis (reference value: 32.14%); assay type: functional
NCI-H929 [22] = assay: Induction of cell cycle arrest in human NCI-H929 cells assessed as accumulation of cells at S phase at 0.25 uM measured after 24 hrs by flow cytometry analysis (reference value: 32.14%); assay type: functional
NCI-H929 [23] = assay: Induction of cell cycle arrest in human NCI-H929 cells assessed as accumulation of cells at S phase at 0.5 uM measured after 24 hrs by flow cytometry analysis (reference value: 32.14%); assay type: functional
NCI-H929 [24] = assay: Induction of cell cycle arrest in human NCI-H929 cells assessed as inhibition of cyclin D1 protein expression at 0.1 to 1 uM; assay type: functional, cell-based; settings: dose 0.1-1 µM
NCI-H929 [25] = assay: Induction of cell cycle arrest in human NCI-H929 cells assessed as inhibition of cyclin E1 protein expression at 0.1 to 1 uM; assay type: functional, cell-based; settings: dose 0.1-1 µM
MM.1R [26] = assay: Induction of cell cycle arrest in human MM1.R cells assessed as inhibition of cyclin E1 protein expression at 0.1 to 1 uM; assay type: functional, cell-based; settings: dose 0.1-1 µM
NCI-H929 [27] = assay: Antitumor activity against human NCI-H929 cells xenografted in Balb/C nude mouse model assessed as reduction in Ki67 expression at 25 mg/kg by immunohistochemical staining based analysis; assay type: functional, organism-based
NCI-H929 [28] = assay: Antitumor activity against human NCI-H929 cells xenografted in Balb/C nude mouse model assessed as inhibition of inhibition of cyclin D1 expression at 25 mg/kg by Western blot analysis; assay type: functional, organism-based
NCI-H929 [29] = assay: Antitumor activity against human NCI-H929 cells xenografted in Balb/C nude mouse model assessed as inhibition of […] expression at 25 mg/kg by Western blot analysis; assay type: functional, organism-based
[30] = target: T1, Interferon regulatory factor 4 (Homo sapiens, UniProt Q15306); assay: Inhibition of IRF4 (unknown origin) incubated for 1 hr by fluorescence polarization assay
T1 sequence (Q15306 whole entry): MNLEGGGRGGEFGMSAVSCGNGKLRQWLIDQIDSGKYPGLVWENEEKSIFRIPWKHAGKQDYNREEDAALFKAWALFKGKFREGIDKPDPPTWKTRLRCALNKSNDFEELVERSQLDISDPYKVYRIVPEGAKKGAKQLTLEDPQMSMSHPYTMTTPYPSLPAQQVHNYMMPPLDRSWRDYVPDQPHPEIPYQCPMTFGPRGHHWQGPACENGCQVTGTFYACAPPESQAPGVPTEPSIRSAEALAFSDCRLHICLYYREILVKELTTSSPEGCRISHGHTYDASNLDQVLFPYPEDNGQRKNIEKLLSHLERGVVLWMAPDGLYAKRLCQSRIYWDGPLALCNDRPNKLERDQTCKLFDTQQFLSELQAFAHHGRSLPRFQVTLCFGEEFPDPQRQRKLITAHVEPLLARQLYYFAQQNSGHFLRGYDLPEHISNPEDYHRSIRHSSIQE

[31] = Antiproliferative activity against human MM1.R cells assessed as inhibition of cell viability measured after 72 hrs by MTS assay; assay type: functional, cell-based; settings: MM.1R
RPMI-8226 [32] = assay: Antiproliferative activity against human RPMI-8226 cells assessed as inhibition of cell viability measured after 72 hrs by MTS assay; assay type: functional, cell-based; settings: RPMI-8226, 72 h
[33] = AUC (0 to t) in ICR mouse plasma at 1.0 mg/kg, iv; assay type: ADME, organism-based
[34] = AUC (0 to infinity) in ICR mouse plasma at 1.0 mg/kg, iv; assay type: ADME, organism-based
[35] = Apparent volume of distribution in ICR mouse plasma at 1.0 mg/kg, iv; assay type: ADME, organism-based; settings: read-out: Vz
[36] = Clearance in ICR mouse plasma at 1.0 mg/kg, iv; assay type: ADME, organism-based
[37] = AUC (0 to t) in ICR mouse plasma at 10 mg/kg, po; assay type: ADME, organism-based

## COc1ccc(NC(=O)[C@@H](C)[C@H]2CC[C@H]3[C@@H]4C(=O)C=C5C(C)(C)C(=O)C(C#N)=C[C@]5(C)[C@H]4CC[C@]23C)cc1
MM.1R [1]
  Activity: Active
NCI-H929 [2]
  Activity: Active
NCI-H929 [3]
  Activity: Active
NCI-H929 [4]
  Activity: Active
MM.1R [5]
  Activity: Active
RPMI-8226 [6]
  Activity: Active; Compound Showed Low Expression
HAF
  Activity: inactive
NCI-H929 [7]
  Activity: Dose-dependent-effect
NCI-H929 [8]
  Activity: Active
NCI-H929 [9]
  Activity: Active
NCI-H929 [10]
  Activity: Active
NCI-H929 [11]
  Activity: Active
MM.1R [12]
  Activity: Active
MM.1R [13]
  Activity: Active
MM.1R [14]
  inhibition: Active
MM.1R [15]
  inhibition: Active
NCI-H929 [16]
  inhibition: Active
NCI-H929 [17]
  inhibition: Active
MM.1R [18]
  Activity: Active
NCI-H929 [19]
  Activity: Dose-dependent-effect
NCI-H929 [20]
  Activity: 64.61%
NCI-H929 [21]
  Activity: 30.67%
NCI-H929 [22]
  Activity: 25.49%
NCI-H929 [23]
  Activity: 20.54%
NCI-H929 [24]
  Activity: Active
NCI-H929 [25]
  Activity: Active
MM.1R [26]
  Activity: Active
NCI-H929 [27]
  Activity: Active
NCI-H929 [28]
  Activity: Active
NCI-H929 [29]
  Activity: Active
[30]
  IC50: 2.63 µM
[31]
  IC50: 0.11 µM
RPMI-8226 [32]
  IC50: 1.19 µM
[33]
  AUC(0-t): 81 ng·h/mL
[34]
  AUC(0-inf): 86 ng·h/mL
[35]
  Vd: 20.8 L/kg
[36]
  clearance: 197 mL/min/kg
[37]
  AUC(0-t): 285 ng·h/mL
